Source: patent US20260265329A1, “POLYPEPTIDE AND DERIVATIVE THEREOF, COMPOSITION, AND USE THEREOF” (HANGZHOU SCIWIND BIOSCIENCES CO., LTD., priority 2023, published 2026)
pEC50: −log10 of the molar value. Starred links: 1 amine or outer side, 2 acyl side, 3 side chain; linkers in the order of their positions; H or OH if unused. Non-standard residues stand in square brackets, D forms with d. Residues, ends and D or L forms follow the SMILES beside them. *: point of attachment. C20 diacid = O=C(O)CCCCCCCCCCCCCCCCCCC(=O)*; C18 diacid = O=C(O)CCCCCCCCCCCCCCCCC(=O)*; C16 diacid = O=C(O)CCCCCCCCCCCCCCC(=O)*; γGlu = O=C(O)[C@H](CCC(=O)[*:2])N[*:1]; βAsp = O=C(O)[C@H](CC(=O)[*:2])N[*:1]; Hyp = O=C(O)[C@@H]1C[C@@H](O)CN1; Trx = NC[C@H]1CC[C@H](C(=O)O)CC1; AEEA = NCCOCCOCC(=O)O

Target: T1, human amylin receptors (Homo sapiens, UniProt O60896+P30988)
T1 construct: host or cells: CHO-K1/Ga15/AMY3 cells, further stably transfected with a CRE-luciferase plasmid
T1 sequence (P30988 25-474): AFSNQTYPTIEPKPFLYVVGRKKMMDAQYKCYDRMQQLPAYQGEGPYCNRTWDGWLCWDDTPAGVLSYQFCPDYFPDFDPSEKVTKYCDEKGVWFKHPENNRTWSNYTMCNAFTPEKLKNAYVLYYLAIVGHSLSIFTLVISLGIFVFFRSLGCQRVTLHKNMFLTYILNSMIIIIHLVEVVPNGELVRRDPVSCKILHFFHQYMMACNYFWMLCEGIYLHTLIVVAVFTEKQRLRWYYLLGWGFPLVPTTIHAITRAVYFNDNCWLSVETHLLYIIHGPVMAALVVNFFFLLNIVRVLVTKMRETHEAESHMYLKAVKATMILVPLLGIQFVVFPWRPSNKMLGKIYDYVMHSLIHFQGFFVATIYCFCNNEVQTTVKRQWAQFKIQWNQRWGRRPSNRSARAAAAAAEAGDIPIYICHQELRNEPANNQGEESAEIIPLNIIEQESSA
T1 sequence (O60896 24-148 partner): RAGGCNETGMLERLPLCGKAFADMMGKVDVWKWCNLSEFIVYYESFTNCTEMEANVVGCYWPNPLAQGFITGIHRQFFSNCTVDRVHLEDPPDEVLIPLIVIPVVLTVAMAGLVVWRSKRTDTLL
Assay: Luciferase assay in stably transfected amylin receptor/CRE-luc CHO cell line
Format: cell-based
Conditions: for Relative activity: EC50 ratio of Cagrilintide to the compound, Cagrilintide 100%; for pEC50: amylin receptor/CRE-luc CHO cells, 24 hours incubation, luminescence

Row | Relative activity | pEC50 | Structure (SMILES)
1 | 171% |  | CC[C@H](C)[C@H](NC(=O)[C@H](CC(=O)O)NC(=O)[C@H](CCCNC(=N)N)NC(=O)[C@H](CC(=O)O)NC(=O)[C@H](CCCNC(=N)N)NC(=O)[C@H](CC(=O)O)NC(=O)[C@@H](NC(=O)[C@H](Cc1ccccc1)NC(=O)[C@H](Cc1c[nH]cn1)NC(=O)[C@H](CCCNC(=N)N)NC(=O)[C@H](CC(C)C)NC(=O)[C@H](Cc1ccccc1)NC(=O)[C@H](CC(=O)O)NC(=O)[C@H](C)NC(=O)[C@H](CC(C)C)NC(=O)[C@H](CCCNC(=N)N)NC(=O)[C@H](CCC(N)=O)NC(=O)[C@@H](NC(=O)[C@H](C)NC(=O)[C@H](C)NC(=O)[C@@H](NC(=O)[C@H](CO)NC(=O)[C@H](CC(C)C)NC(=O)[C@H](CCC(N)=O)NC(=O)[C@H](CO)NC(=O)[C@H](C)NC(=O)COCCOCCNC(=O)COCCOCCNC(=O)[C@H]1CC[C@H](CNC(=O)CCCCCCCCCCCCCCCCCCC(=O)O)CC1)[C@@H](C)O)[C@@H](C)O)[C@@H](C)O)C(=O)N[C@@H](CC(C)C)C(=O)N1CCC[C@H]1C(=O)N1CCC[C@H]1C(=O)N[C@H](C(=O)N[C@@H](CC(N)=O)C(=O)N[C@H](C(=O)NCC(=O)N[C@@H](CO)C(=O)N[C@@H](CC(N)=O)C(=O)N[C@H](C(=O)N1CCC[C@H]1C(N)=O)[C@@H](C)O)C(C)C)[C@@H](C)O [M20] ({C20 diacid-Trx-AEEA-AEEA}-ASQLSTAATQRLADFLRHFTDRDRDILPPTNVGSNTP-NH2)
2 | 182% | 10.77 | CC[C@H](C)[C@H](NC(=O)[C@H](CC(=O)O)NC(=O)[C@H](CCCNC(=N)N)NC(=O)[C@H](CC(=O)O)NC(=O)[C@H](CCCNC(=N)N)NC(=O)[C@H](CC(=O)O)NC(=O)[C@@H](NC(=O)[C@H](Cc1ccccc1)NC(=O)[C@H](Cc1c[nH]cn1)NC(=O)[C@H](CCCNC(=N)N)NC(=O)[C@H](CC(C)C)NC(=O)[C@H](Cc1ccccc1)NC(=O)[C@H](CC(=O)O)NC(=O)[C@H](C)NC(=O)[C@H](CC(C)C)NC(=O)[C@H](CCCNC(=N)N)NC(=O)[C@H](CCC(N)=O)NC(=O)[C@@H](NC(=O)[C@H](C)NC(=O)[C@H](C)NC(=O)[C@@H](NC(=O)[C@H](CO)NC(=O)[C@H](CC(C)C)NC(=O)[C@H](CCC(N)=O)NC(=O)[C@H](CO)NC(=O)[C@H](C)NC(=O)CC[C@H](NC(=O)CCCCCCCCCCCCCCC(=O)O)C(=O)O)[C@@H](C)O)[C@@H](C)O)[C@@H](C)O)C(=O)N[C@@H](CC(C)C)C(=O)N1CCC[C@H]1C(=O)N1CCC[C@H]1C(=O)N[C@H](C(=O)N[C@@H](CC(N)=O)C(=O)N[C@H](C(=O)NCC(=O)N[C@@H](CO)C(=O)N[C@@H](CC(N)=O)C(=O)N[C@H](C(=O)N1CCC[C@H]1C(N)=O)[C@@H](C)O)C(C)C)[C@@H](C)O [M23] ({C16 diacid-γGlu}-ASQLSTAATQRLADFLRHFTDRDRDILPPTNVGSNTP-NH2)
3 | 184% | 10.52 | CC[C@H](C)[C@H](NC(=O)[C@@H]1CCCN1C(=O)[C@H](CCCCN)NC(=O)[C@H](CC(C)C)NC(=O)[C@H](CC(N)=O)NC(=O)[C@H](CC(N)=O)NC(=O)[C@H](CO)NC(=O)[C@H](CO)NC(=O)[C@H](Cc1c[nH]cn1)NC(=O)[C@H](CCCNC(=N)N)NC(=O)[C@H](CC(C)C)NC(=O)[C@H](Cc1ccccc1)NC(=O)[C@H](CC(=O)O)NC(=O)[C@H](C)NC(=O)[C@H](CC(C)C)NC(=O)[C@H](CCCNC(=N)N)NC(=O)[C@H](CCC(N)=O)NC(=O)[C@@H](NC(=O)[C@H](C)NC(=O)[C@H](C)NC(=O)[C@@H](NC(=O)[C@H](CO)NC(=O)[C@H](CC(C)C)NC(=O)[C@H](CCC(N)=O)NC(=O)[C@H](CO)NC(=O)[C@H](C)NC(=O)CC[C@H](NC(=O)CCCCCCCCCCCCCCCCC(=O)O)C(=O)O)[C@@H](C)O)[C@@H](C)O)C(=O)N[C@@H](CC(C)C)C(=O)N1CCC[C@H]1C(=O)N1CCC[C@H]1C(=O)N[C@H](C(=O)N[C@@H](CC(N)=O)C(=O)N[C@H](C(=O)NCC(=O)N[C@@H](CO)C(=O)N[C@@H](CC(N)=O)C(=O)N[C@H](C(=O)N1C[C@H](O)C[C@H]1C(N)=O)[C@@H](C)O)C(C)C)[C@@H](C)O [M37] ({C18 diacid-γGlu}-ASQLSTAATQRLADFLRHSSNNLKPILPPTNVGSNT[Hyp]-NH2)
4 | 44% | 9.94 | CC[C@H](C)[C@H](NC(=O)[C@@H]1CCCN1C(=O)[C@H](CCCCN)NC(=O)[C@H](CC(C)C)NC(=O)[C@H](CC(N)=O)NC(=O)[C@H](CC(N)=O)NC(=O)[C@H](CO)NC(=O)[C@H](CO)NC(=O)[C@H](Cc1c[nH]cn1)NC(=O)[C@H](CCCNC(=N)N)NC(=O)[C@H](CC(C)C)NC(=O)[C@H](Cc1ccccc1)NC(=O)[C@H](CC(=O)O)NC(=O)[C@H](C)NC(=O)[C@H](CC(C)C)NC(=O)[C@H](CCCNC(=N)N)NC(=O)[C@H](CCC(N)=O)NC(=O)[C@@H](NC(=O)[C@H](C)NC(=O)[C@H](C)NC(=O)[C@@H](NC(=O)[C@H](CO)NC(=O)[C@H](CC(C)C)NC(=O)[C@H](CCC(N)=O)NC(=O)[C@H](CO)NC(=O)[C@H](C)NC(=O)COCCOCCNC(=O)COCCOCCNC(=O)[C@H](CCC(=O)O)NC(=O)CCCCCCCCCCCCCCCCCCC(=O)O)[C@@H](C)O)[C@@H](C)O)C(=O)N[C@@H](CC(C)C)C(=O)N1CCC[C@H]1C(=O)N1CCC[C@H]1C(=O)N[C@H](C(=O)N[C@@H](CC(N)=O)C(=O)N[C@H](C(=O)NCC(=O)N[C@@H](CO)C(=O)N[C@@H](CC(N)=O)C(=O)N[C@H](C(=O)N1C[C@H](O)C[C@H]1C(N)=O)[C@@H](C)O)C(C)C)[C@@H](C)O [M32] ({C20 diacid}-E[AEEA][AEEA]ASQLSTAATQRLADFLRHSSNNLKPILPPTNVGSNT[Hyp]-NH2)
5 | 124% |  | CC[C@H](C)[C@H](NC(=O)[C@@H]1CCCN1C(=O)[C@H](CCCCN)NC(=O)[C@H](CC(C)C)NC(=O)[C@H](CC(N)=O)NC(=O)[C@H](CC(N)=O)NC(=O)[C@H](CO)NC(=O)[C@H](CO)NC(=O)[C@H](Cc1c[nH]cn1)NC(=O)[C@H](CCCNC(=N)N)NC(=O)[C@H](CC(C)C)NC(=O)[C@H](Cc1ccccc1)NC(=O)[C@H](CC(=O)O)NC(=O)[C@H](C)NC(=O)[C@H](CC(C)C)NC(=O)[C@H](CCCNC(=N)N)NC(=O)[C@H](CCC(N)=O)NC(=O)[C@@H](NC(=O)[C@H](C)NC(=O)[C@H](C)NC(=O)[C@@H](NC(=O)[C@H](CO)NC(=O)[C@H](CC(C)C)NC(=O)[C@H](CCC(N)=O)NC(=O)[C@H](CO)NC(=O)[C@H](C)NC(=O)COCCOCCNC(=O)COCCOCCNC(=O)[C@H]1CC[C@H](CNC(=O)CCCCCCCCCCCCCCCCCCC(=O)O)CC1)[C@@H](C)O)[C@@H](C)O)C(=O)N[C@@H](CC(C)C)C(=O)N1CCC[C@H]1C(=O)N1CCC[C@H]1C(=O)N[C@H](C(=O)N[C@@H](CC(N)=O)C(=O)N[C@H](C(=O)NCC(=O)N[C@@H](CO)C(=O)N[C@@H](CC(N)=O)C(=O)N[C@H](C(=O)N1C[C@H](O)C[C@H]1C(N)=O)[C@@H](C)O)C(C)C)[C@@H](C)O [M35] ({C20 diacid-Trx-AEEA-AEEA}-ASQLSTAATQRLADFLRHSSNNLKPILPPTNVGSNT[Hyp]-NH2)
6 | 32% | 10.09 | CC[C@H](C)[C@H](NC(=O)[C@H](CC(=O)O)NC(=O)[C@H](CCCNC(=N)N)NC(=O)[C@H](CC(=O)O)NC(=O)[C@H](CCCNC(=N)N)NC(=O)[C@H](CC(=O)O)NC(=O)[C@@H](NC(=O)[C@H](Cc1ccccc1)NC(=O)[C@H](Cc1c[nH]cn1)NC(=O)[C@H](CCCNC(=N)N)NC(=O)[C@H](CC(C)C)NC(=O)[C@H](Cc1ccccc1)NC(=O)[C@H](CC(=O)O)NC(=O)[C@H](C)NC(=O)[C@H](CC(C)C)NC(=O)[C@H](CCCNC(=N)N)NC(=O)CNC(=O)[C@H](CC(C)C)NC(=O)[C@H](C)NC(=O)[C@H](C)NC(=O)[C@@H](NC(=O)[C@H](CO)NC(=O)[C@H](CC(C)C)NC(=O)[C@H](CCC(=O)O)NC(=O)[C@H](CO)NC(=O)[C@H](C)NC(=O)CC[C@H](NC(=O)CCCCCCCCCCCCCCCCCCC(=O)O)C(=O)O)[C@@H](C)O)[C@@H](C)O)C(=O)N[C@@H](CC(C)C)C(=O)N1CCC[C@H]1C(=O)N1CCC[C@H]1C(=O)N[C@H](C(=O)N[C@@H](CC(N)=O)C(=O)N[C@H](C(=O)NCC(=O)N[C@@H](CO)C(=O)N[C@@H](CC(N)=O)C(=O)N[C@H](C(=O)N1CCC[C@H]1C(N)=O)[C@@H](C)O)C(C)C)[C@@H](C)O [M3] ({C20 diacid-γGlu}-ASELSTAALGRLADFLRHFTDRDRDILPPTNVGSNTP-NH2)
7 | 78% | 10.47 | CC[C@H](C)[C@H](NC(=O)[C@H](CC(=O)O)NC(=O)[C@H](CCCNC(=N)N)NC(=O)[C@H](CC(=O)O)NC(=O)[C@H](CCCNC(=N)N)NC(=O)[C@H](CC(=O)O)NC(=O)[C@@H](NC(=O)[C@H](Cc1ccccc1)NC(=O)[C@H](Cc1c[nH]cn1)NC(=O)[C@H](CCCNC(=N)N)NC(=O)[C@H](CC(C)C)NC(=O)[C@H](Cc1ccccc1)NC(=O)[C@H](CC(=O)O)NC(=O)[C@H](C)NC(=O)[C@H](CC(C)C)NC(=O)[C@H](CCCNC(=N)N)NC(=O)[C@H](CCC(N)=O)NC(=O)[C@@H](NC(=O)[C@H](C)NC(=O)[C@H](C)NC(=O)[C@@H](NC(=O)[C@H](CO)NC(=O)[C@H](CC(C)C)NC(=O)[C@H](CCC(N)=O)NC(=O)[C@H](CO)NC(=O)[C@H](C)NC(=O)C[C@H](NC(=O)CCCCCCCCCCCCCCCCCCC(=O)O)C(=O)O)[C@@H](C)O)[C@@H](C)O)[C@@H](C)O)C(=O)N[C@@H](CC(C)C)C(=O)N1CCC[C@H]1C(=O)N1CCC[C@H]1C(=O)N[C@H](C(=O)N[C@@H](CC(N)=O)C(=O)N[C@H](C(=O)NCC(=O)N[C@@H](CO)C(=O)N[C@@H](CC(N)=O)C(=O)N[C@H](C(=O)N1CCC[C@H]1C(N)=O)[C@@H](C)O)C(C)C)[C@@H](C)O [M12] ({C20 diacid-βAsp}-ASQLSTAATQRLADFLRHFTDRDRDILPPTNVGSNTP-NH2)
